Data published in PMC12040169 (PLOS Biology, 2025).

Assay: in vitro
Conditions: human, hela cells

In the case of `CC1CN(C(=O)Oc2ccccc2)C(C)CN1CCCC(c1ccc(F)cc1)c1ccc(F)cc1` (stereo not shown) [CBK024993C], the viability at 28.5 h, 10 µM is reported as 87.4%.

Same assay, conditions: human, hela cells, % viability

In order of rising viability at 28.5 h, 10 µM:
1. Cc1ccc(C(C)C)c(OC(=O)c2ccc3nccnc3c2)c1 [CBK269114]  62.7%
2. COc1cccc2cc(C(=O)NCc3cccs3)oc12 [CBK149799]  67.9%
3. O=C(NC1CC1)[C@H]1CN2CCC1C[C@@H]2Cn1cc(-c2cccc(O)c2)nn1 (stereo partly shown) [CBK288738]  79.8%
4. CCOc1cccc(-c2cncc(NCCO)n2)c1 [CBK066075]  81%
5. COc1ccc(C)cc1NC(=O)Nc1nc(C)cs1 [CBK006565]  83.3%
6. c1ccc(-c2nc3sc4c(ncn5cnnc45)c3c3c2CCC3)cc1 [CBK269566]  84.3%
7. O=C1COc2ccccc2C/C=C/C[C@H]2CN(C(=O)Cn3ncc4ccccc4c3=O)CC[C@H]2N1 [CBK292084]  85.6%
8. O=C(N[C@@H](Cn1ccc(=O)[nH]c1=O)C(=O)O)C1CCCCC1 [CBK289651]  85.8%
9. O=C1CN(Cc2cnn(-c3ccc(F)cc3)c2)CCN1C1CCCC1 [CBK281926]  86.5%
10. O=C(O)CCC(=O)Nc1ccc(Br)cc1C(=O)c1ccc(Cl)cc1 [CBK262601]  86.7%
11. O=C1NC/C=C/CC2(CCN(C(=O)CCc3cccnc3)CC2)C(=O)NCCOc2ccccc21 [CBK292007]  88.3%
12. N=C1/C(=C/c2ccc(-c3cccc([N+](=O)[O-])c3)o2)C(=O)N=C2SC(SCc3ccccc3)=NN12 [CBK265354]  88.5%
13. O=C(CC1CCCCC1)N1CCC(n2nc(C3CC3)ccc2=O)CC1 [CBK284241]  88.6%
14. C[C@@H](c1ccccc1)N1C(=O)[C@@H]2CN(C(=O)CC3(CC(=O)O)CCCC3)CCN2C1=O [CBK289637]  88.7%
15. CC(C)(C)OC(=O)N1CCN(c2ccc(C(F)(F)F)c(Cl)n2)CC1 [CBK003030]  88.9%
16. COC(=O)c1cn(C(=O)c2snnc2C)nc1C(C)(C)C [CBK021420]  89.2%
17. Nc1cccc(Oc2ccc(C(=O)O)c(C(=O)O)c2)c1 [CBK261180]  89.4%
18. C=CCO[C@@H]1C[C@H]2C(=O)N3CC[C@H](NC(=O)[C@@H](O)c4ccccc4)C[C@H]3C(=O)N2C1 [CBK289556]  89.6%
19. CNC(=O)c1cccc(NC(=O)c2cc(-c3ccc(O)cc3)cnc2N(C)C)c1 [CBK106397]  89.6%
20. COCC(=O)N1CCc2sccc2C1c1ccc(NCc2ccc(F)cc2)cc1 (stereo not shown) [CBK286445]  89.7%
21. O=C(CSc1nc2ccccc2[nH]1)Nc1cccc(NC(=O)C23CC4CC(CC(C4)C2)C3)c1 [CBK265702]  89.8%
22. Cn1ccnc1CN1C(=O)CO[C@H]2CN(Cc3ccc4c(c3)OCO4)C[C@H]21 [CBK289665]  90%
23. CN(C)c1nc2c(c(=O)[nH]c(=O)n2C)n1Cc1cccc2ccccc12 [CBK140560]  90.1%
24. CCc1csc(C(=Cc2cccs2)C(N)=O)n1 [CBK001007]  90.2%
25. Cc1sc(NC(=O)c2ccc3c(c2)OCCO3)c(C(=O)NCc2cccnc2)c1C [CBK268181]  90.8%
26. Cc1ccc(-c2nccnc2OCCOc2ccccc2)cc1C [CBK106865]  90.8%
27. Cc1ncsc1CCS(=O)(=O)N1CCOCC1c1cccc(F)c1 (stereo not shown) [CBK304254]  91%
28. CC(=O)Nc1ccc(S(=O)(=O)Nc2ccnc(N3CCN4CCCC4C3)n2)cc1 (stereo not shown) [CBK000380C]  91.1%
29. Cc1ccc(F)cc1C(=O)NCC1CCN(c2cnn(C)c(=O)c2)C1 (stereo not shown) [CBK307235]  92.2%
30. CN1CCN(/N=C/c2c(C(F)(F)F)[nH]n(-c3nc4ccccc4s3)c2=O)CC1 [CBK263163]  92.4%
31. CCn1c(=O)n(CC(C)(C)O)c2cc(S(=O)(=O)N(C)C)ccc21 [CBK304893]  92.8%
32. CN(C)CCN1CCN(c2cncc(-c3cccnc3)n2)CC1 [CBK065416]  93.2%
33. COc1ccc(C(=O)N(CCC#N)Cc2ccco2)cc1 [CBK304862]  93.5%
34. CN1CCN(c2nc(-c3ccccc3)cc(-c3ccc(Br)cc3)n2)CC1 [CBK262774]  93.7%
35. Cc1ccc(CN2CCCC3(C/C=C/COc4ccccc4C(=O)NCCNC3=O)C2)cn1 (stereo not shown) [CBK292022]  94%
36. COc1ccc([N+](=O)[O-])c(Oc2cccc(C(F)(F)F)c2)n1 [CBK002796]  94.5%
37. Cc1nccn1CC1(O)CCN(C(=O)C2(c3ccccc3)CC2)CC1 [CBK284659]  94.6%
38. CC(C)c1nnc(NC(=O)CC2CCN(C(=O)C3(c4ccccc4)CCCC3)CC2)s1 [CBK285905]  94.9%
39. COc1ccc(CN2CCN(c3ccc(F)cc3)CC2)cc1OCc1ccccc1 [CBK261894]  95%
40. Cc1cc(C)c(S(=O)(=O)NCCSCCC(=O)O)c(C)c1 [CBK013358]  95.7%
41. Cc1ccc(CN(Cc2ncc[nH]2)C2CC(C)(C)NC(C)(C)C2)o1 [CBK283191]  96%
42. O=C(CN1CCN(c2nc3cc(Cl)ccc3s2)CC1)c1ccc2c(c1)OCCCO2 [CBK074737]  96.6%
43. COc1cccc(OC)c1OCCN1CCC(CNC(=O)Nc2cccc(C(F)(F)F)c2)CC1 [CBK051512T]  96.7%
44. CCOc1cccc(-c2cn3ccnc3c(NCc3cc(OC)c(OC)c(OC)c3)n2)c1 [CBK066717]  96.7%
45. CC(=O)c1ccc(-c2nc(-c3ccoc3)cnc2N)cc1 [CBK064058]  97.3%
46. N#Cc1c(N)nc(SCC(=O)O)c(C#N)c1-c1ccc(O)cc1 [CBK261270]  98%
47. CCn1nc(C)c(-c2cncn2CCCOc2cccc(C)c2)c1C [CBK281997]  98.2%
48. COCC(=O)NCC1Cc2cc(F)cc(-c3ccc(C(C)=O)s3)c2O1 (stereo not shown) [CBK307310]  98.4%
49. CCc1nn(CC(=O)NC2CCCC2)c(=O)c2cc3ccsc3n12 [CBK284134]  98.4%
50. Cc1noc(/C=C\c2cc(C)n(-c3ccc(C(=O)O)cc3)c2C)c1[N+](=O)[O-] [CBK268862]  98.8%
51. NC(=O)c1cccc(-c2cnc(N)c(NC3CCOCC3)n2)c1 [CBK063836]  98.8%
52. CN1C(=O)c2ccccc2OCCCCC[C@H]2[C@@H]1CCCN2C(=O)CN1CCN(CCO)CC1 [CBK292144]  99%
53. CC(C)(C)OC(=O)N1CCCC(C(=O)NCc2ccco2)C1 (stereo not shown) [CBK305102]  99.1%
54. OCc1ccc(-c2nccnc2NCc2cccs2)cc1 [CBK088689]  99.1%
55. CC(C)(C)OC(=O)N1CCN(Cc2ncc(-c3ccccc3)o2)CC1 [CBK306281]  99.3%
56. CCOC(=O)CC(=O)CSc1nc2nc(C)cc(C)n2n1 [CBK268469]  99.8%
57. CCCN1CCC(CNC(=O)c2cc3ccc(OC)cc3n2C)CC1 [CBK282542]  99.9%
58. O=C(c1c[nH]c(=O)n(-c2ccc(F)cc2)c1=O)N1CCc2ccccc21 [CBK287554]  101%
59. O=C(O)CCC(=O)c1cccc([N+](=O)[O-])c1 [CBK263681]  101%
60. Cc1nc2c(C(=O)NCCCN3CCCC3=O)cnn2c(C)c1Cc1cccc(F)c1 [CBK162104]  101%
61. Clc1ccc(CN2CCN(c3nccnc3OCC3COc4ccccc4O3)CC2)cc1 (stereo not shown) [CBK082786T]  101%
62. O=C(Nc1ncc(Cl)s1)C1CC(=O)N(C2CC2)C1 (stereo not shown) [CBK175551]  102%
63. CC(C)COc1ccc(-c2nonc2NC(=O)c2cccs2)cc1 [CBK299822]  103%
64. CCCc1[nH]nc(O)c1C(=O)c1c(F)cccc1Cl [CBK103524]  103%
65. COc1ccc(CCC2CCN(C)CC2)c(O)c1 [CBK283668]  104%
66. CCNC(=O)N1C[C@@H]2OCC(=O)N(Cc3ccccc3)[C@@H]2C1 [CBK289679]  104%
67. Cc1nc2ccccc2[nH]/c1=N/O [CBK018103]  104%
68. CSc1nc2ccc(Nc3cc(C)nc4ncnn34)cc2s1 [CBK297724]  105%
69. Cc1ccc(C(=O)N2CCC3(CC2)CC(=O)c2cc(Br)ccc2O3)cc1C [CBK162264]  105%
70. CCOc1ccc(-c2cncc(N[C@@H](C)c3ccccc3)n2)cc1 [CBK065720]  106%
71. COc1ccc(CCC(=O)NCC(c2cccs2)N2CCOCC2)cc1 (stereo not shown) [CBK304674]  107%
72. Cc1nn(Cc2ccccc2)c(C)c1CC(=O)NCCn1ccnc1 [CBK282095]  107%
73. CN1CCN(CCC(=O)Nc2cccc(Cl)c2)CC1 [CBK070793C]  108%
74. COc1ccc(OC)c(N/C=C(/C#N)c2nc(-c3cc4c(ccc5ccccc54)oc3=O)cs2)c1 [CBK262991]  109%
75. CC(CCN(CCN)C(=O)N1CCC(Cn2cncn2)(C2CCCCC2)CC1)c1ccccc1 (stereo not shown) [CBK002130C]  110%
76. Fc1ccc(-c2[nH]c3ncccc3c2CN2CCOCC2)cc1 [CBK285310]  111%
77. CC(C)(C)c1ccc(S(=O)(=O)N2CCC3(CC2)OCCO3)cc1 [CBK038429]  111%
78. Cc1cc(Br)ccc1NC(=O)c1cnc2sccn2c1=O [CBK246520]  112%
79. Cc1ccccc1Sc1ccc(C(F)(F)F)cn1 [CBK115237]  112%
80. Cc1ccc(-c2cn(S(=O)(=O)c3cccc4nsnc34)nc2N)cc1 [CBK268871]  113%
81. S=C(Nc1ccccc1)Nc1nc2ccccc2n1CCOc1ccccc1 [CBK265487]  113%
82. CC(C)(C)c1cc2cc(NC(=O)C3CC3)ccc2[nH]1 [CBK019994]  115%
83. N#CC(c1ccc(O)cc1)N1CCOCC1 (stereo not shown) [CBK261659]  116%
84. Cc1ccc(C(=O)CSc2nc(O)c3nc[nH]c3n2)cc1 [CBK300520]  119%

Same assay, conditions: human, hela cells, % viability, bulk resorufin, single well

In order of falling viability at 28.5 h, 10 µM:
1. O=C1OC(c2c(O)nc(=O)[nH]c2O)c2ccccc21 (stereo not shown) [CBK019775]  113%
2. O=C(COc1ccc(C=C2C(=O)NC(=O)NC2=O)cc1)NCC1CCCO1 (stereo not shown) [CBK263709]  91.9%
3. CC(C)(C)c1ccccc1NC(=O)N1CCC2(CC1)OCCO2 [CBK043720]  91.3%
